Test results published in the supplement of paper PMC4862054.
Values joined by “and” are separate entries in the source; they are usually repeats but may differ in a detail not shown here. Equal values may be shown once.

Tests used:
Conditions in all cases: incubation time: 72 h
MDA-MB-468 [1] = assay: normalised viability (% of control), CellTiter-Blue; higher = more viable cells (about 100 = DMSO control)
Experimental: (§1)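 DSRT, CellTiter-Blue viability, 72 h incubation. Signal is normalised to DMSO and benzethonium chloride controls. Value is the normalised response at dose 3.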

MFM-223 [2] = assay: as above
Experimental: as §1

BT-549 [3] = assay: as above
Experimental: as §1

DU-4475 = assay: normalised viability (% of control), CellTiter-Blue; higher = more viable cells (about 100 = DMSO control)
In short: (§2)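 The reported figure is normalised viability at a single listed concentration of the series. Breast cancer cell lines (20 µl suspension) went onto 384-well plates holding compound in 5 µl medium for 72 h. CellTiter-Blue (2.5 µl, 2 h, 37 °C) was read by fluorescence at 560/590 nm, and each plate was scaled to vehicle at 100 and a positive kill control at 0.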

CAL-120 = assay: as above
In short: as §2

CAL-51 = assay: as above
In short: as §2

BT-474 = assay: as above
In short: as §2

MDA-MB-231 [4] = assay: as above
In short: as §2

MDA-MB-436 = assay: as above
In short: as §2

HCC1599 = assay: as above
In short: as §2

SK-BR-3 = assay: as above
In short: as §2

MDA-MB-468 [5] = assay: as above; remark: listed apart in the source
In short: as §2

MDA-MB-453 = assay: as above
In short: as §2

Hs578T = assay: as above
In short: as §2

HDQ-P1 = assay: as above
In short: as §2

CAL-148 = assay: as above
In short: as §2

MFM-223 [6] = assay: as above; remark: listed apart in the source
In short: as §2

CAL-85-1 = assay: as above
In short: as §2

HCC1143 = assay: as above
In short: as §2

BT-549 [7] = assay: as above; remark: listed apart in the source
In short: as §2

HCC1937 = assay: as above
In short: as §2

MDA-MB-231 [8] = assay: drug sensitivity score (DSS), CellTiter-Blue viability (DSS (AUC-based score)); higher = stronger viability inhibition; extreme values may be limits of the assay
In short: (§3)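 The drug sensitivity score was derived from the area under a fitted dose-response curve. To obtain the curves, breast cancer cells (20 µl suspension) were plated into 384-well plates with compound at 5 or 9 concentrations and kept for 72 h. Viability was measured by CellTiter-Blue fluorescence at 560/590 nm, with each plate normalised to 0.1 % DMSO and a positive kill control.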

MFM-223 [9] = assay: as above
In short: as §3

Nc1cccc2c1CN(C1CCC(=O)NC1=O)C2=O (stereo not drawn) [Lenalidomide]
Conditions	normalised viability
BT-474, 10 nM	104% and 109%
BT-474, 1000 nM	117% and 107%
BT-474, 10000 nM	117% and 104%
BT-549 [3], 100 nM	92.2% and 101%
BT-549 [7], 10 nM	94.5% and 88.9%
BT-549 [7], 1000 nM	94.5% and 95.7%
BT-549 [7], 10000 nM	89.3% and 101%
CAL-51, 3 nM	106% and 108%
CAL-51, 30 nM	99.4% and 99.6%
CAL-51, 100 nM	99.9% and 97.6%
CAL-85-1, 3 nM	82.3% and 93%
CAL-85-1, 30 nM	76.5% and 84.1%
CAL-85-1, 100 nM	86% and 96.7%
CAL-120, 10 nM	76% and 81.3%
CAL-120, 1000 nM	80.2% and 81.1%
CAL-120, 10000 nM	84.4% and 80.2%
CAL-148, 3 nM	78.6% and 91.8%
CAL-148, 30 nM	86% and 94.3%
CAL-148, 100 nM	86.9% and 89.8%
DU-4475, 3 nM	92.4% and 107%
DU-4475, 30 nM	89.8% and 80.5%
DU-4475, 100 nM	94.3% and 93.8%
HCC1143, 10 nM	76.4% and 66.6%
HCC1143, 1000 nM	89.1% and 70%
HCC1143, 10000 nM	72% and 72.4%
HCC1599, 10 nM	82.8% and 82.1%
HCC1599, 1000 nM	91.9% and 86.6%
HCC1599, 10000 nM	113% and 103%
HCC1937, 10 nM	92.3% and 85.5%
HCC1937, 1000 nM	86.2% and 84.6%
HCC1937, 10000 nM	78.2% and 87.7%
HDQ-P1, 3 nM	95.7% and 91.8%
HDQ-P1, 30 nM	106% and 83.8%
HDQ-P1, 100 nM	92.3% and 86.8%
Hs578T, 10 nM	107% and 99.5%
Hs578T, 1000 nM	111% and 97.7%
Hs578T, 10000 nM	100% and 95.5%
MDA-MB-231 [4], 10 nM	89% and 86.3%
MDA-MB-231 [4], 1000 nM	79.1% and 103%
MDA-MB-231 [4], 10000 nM	92.3% and 103%
MDA-MB-436, 10 nM	98.1% and 99.7%
MDA-MB-436, 1000 nM	85% and 101%
MDA-MB-436, 10000 nM	107% and 112%
MDA-MB-453, 3 nM	107% and 106%
MDA-MB-453, 30 nM	89.3% and 94.9%
MDA-MB-453, 100 nM	96.6% and 103%
MDA-MB-468 [1], 100 nM	100% and 94.2%
MDA-MB-468 [5], 10 nM	103% and 111%
MDA-MB-468 [5], 1000 nM	105% and 99.7%
MDA-MB-468 [5], 10000 nM	93.5% and 106%
MFM-223 [2], 100 nM	91.3% and 90.2%
MFM-223 [6], 10 nM	87.7% and 85.8%
MFM-223 [6], 1000 nM	90.2% and 96.7%
MFM-223 [6], 10000 nM	100% and 104%
SK-BR-3, 10 nM	104% and 93.7%
SK-BR-3, 1000 nM	94.7% and 95.1%
SK-BR-3, 10000 nM	86.8% and 101%

Conditions	drug sensitivity score
MDA-MB-231 [8]	0
MFM-223 [9]	0

C[C@]12O[C@H](C[C@]1(O)CO)n1c3ccccc3c3c4c(c5c6ccccc6n2c5c31)CNC4=O [Lestaurtinib]
Conditions	normalised viability [%]
BT-474, 1 nM	120
BT-474, 100 nM	110
BT-474, 1000 nM	69
BT-549 [3], 10 nM	106
BT-549 [7], 1 nM	88.3
BT-549 [7], 100 nM	101
BT-549 [7], 1000 nM	41.8
CAL-51, 0.3 nM	113
CAL-51, 3 nM	108
CAL-51, 10 nM	106
CAL-85-1, 0.3 nM	106
CAL-85-1, 3 nM	97.8
CAL-85-1, 10 nM	102
CAL-120, 1 nM	108
CAL-120, 100 nM	60.7
CAL-120, 1000 nM	47.5
CAL-148, 0.3 nM	96.8
CAL-148, 3 nM	98.6
CAL-148, 10 nM	98.3
DU-4475, 0.3 nM	93.2
DU-4475, 3 nM	104
DU-4475, 10 nM	100
HCC1143, 1 nM	107
HCC1143, 100 nM	89.8
HCC1143, 1000 nM	61.6
HCC1599, 1 nM	102
HCC1599, 100 nM	94.6
HCC1599, 1000 nM	64.8
HCC1937, 1 nM	89
HCC1937, 100 nM	77.4
HCC1937, 1000 nM	31.3
HDQ-P1, 0.3 nM	119
HDQ-P1, 3 nM	112
HDQ-P1, 10 nM	126
Hs578T, 1 nM	110
Hs578T, 100 nM	122
Hs578T, 1000 nM	63.3
MDA-MB-231 [4], 1 nM	112
MDA-MB-231 [4], 100 nM	104
MDA-MB-231 [4], 1000 nM	62.6
MDA-MB-436, 1 nM	102
MDA-MB-436, 100 nM	93.4
MDA-MB-436, 1000 nM	55.5
MDA-MB-453, 0.3 nM	126
MDA-MB-453, 3 nM	98.4
MDA-MB-453, 10 nM	104
MDA-MB-468 [1], 10 nM	92.9
MDA-MB-468 [5], 1 nM	107
MDA-MB-468 [5], 100 nM	106
MDA-MB-468 [5], 1000 nM	51
MFM-223 [2], 10 nM	107
MFM-223 [6], 1 nM	97.6
MFM-223 [6], 100 nM	80.9
MFM-223 [6], 1000 nM	42.8
SK-BR-3, 1 nM	108
SK-BR-3, 100 nM	102
SK-BR-3, 1000 nM	37.2

Conditions	drug sensitivity score
MDA-MB-231 [8]	0
MFM-223 [9]	5.87
